Molecular target: PIK3CA (human) (UniProt P42336)
Experiment: Inhibition of PIK3CA Kinase Activity

Sequence of PIK3CA (human) (P42336 whole entry, looked up): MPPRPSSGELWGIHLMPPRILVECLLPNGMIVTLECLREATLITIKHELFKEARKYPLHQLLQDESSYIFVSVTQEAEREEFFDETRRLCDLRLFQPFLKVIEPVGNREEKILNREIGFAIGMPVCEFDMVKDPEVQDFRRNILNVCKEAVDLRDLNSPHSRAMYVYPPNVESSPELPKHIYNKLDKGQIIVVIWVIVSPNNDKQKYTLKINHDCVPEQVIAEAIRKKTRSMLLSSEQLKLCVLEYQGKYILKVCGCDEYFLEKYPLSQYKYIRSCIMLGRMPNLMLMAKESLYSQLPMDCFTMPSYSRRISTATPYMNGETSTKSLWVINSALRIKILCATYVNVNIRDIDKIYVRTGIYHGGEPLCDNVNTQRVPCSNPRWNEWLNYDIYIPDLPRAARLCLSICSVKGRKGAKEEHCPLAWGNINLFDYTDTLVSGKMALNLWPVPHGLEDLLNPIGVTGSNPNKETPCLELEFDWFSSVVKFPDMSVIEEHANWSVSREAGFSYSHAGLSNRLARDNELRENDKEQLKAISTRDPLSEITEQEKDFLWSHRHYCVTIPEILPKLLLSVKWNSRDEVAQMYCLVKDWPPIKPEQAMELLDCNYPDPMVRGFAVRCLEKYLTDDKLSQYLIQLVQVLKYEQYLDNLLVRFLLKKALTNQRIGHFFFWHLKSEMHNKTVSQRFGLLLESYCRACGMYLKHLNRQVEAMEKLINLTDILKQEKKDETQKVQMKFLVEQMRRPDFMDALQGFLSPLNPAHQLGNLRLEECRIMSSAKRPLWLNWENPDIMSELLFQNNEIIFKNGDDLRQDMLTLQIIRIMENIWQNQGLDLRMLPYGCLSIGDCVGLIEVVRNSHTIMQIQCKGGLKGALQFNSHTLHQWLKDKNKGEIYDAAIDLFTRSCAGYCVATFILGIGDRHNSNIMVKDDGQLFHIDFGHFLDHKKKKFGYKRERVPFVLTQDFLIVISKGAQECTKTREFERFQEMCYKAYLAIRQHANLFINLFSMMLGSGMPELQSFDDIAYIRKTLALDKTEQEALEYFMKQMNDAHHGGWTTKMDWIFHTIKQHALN

**Q.** `Cc1nc(N)nc(-n2c(Nc3ccc(NS(=O)(=O)c4ccc(F)cc4)cc3)nc3ccccc32)n1` was tested. Which IC50 did it give?
**A.** 1340 nM

**Q.** Which IC50 does the source give for `Cc1nc(N)nc(-n2c(NC3CCOC3)nc3ccccc32)n1` (stereo unspecified) here?
**A.** 3830 nM

**Q.** For `Cc1nc(N)nc(-n2c(Nc3ccc(NC(=O)c4ccc(OC(F)(F)F)cc4)cc3)nc3ccccc32)n1`, which IC50 is on record?
**A.** 2550 nM

**Q.** Which IC50 does the source give for `CNc1nc(C)nc(-n2c(Nc3cc[nH]n3)nc3ccc(-c4cncnc4)cc32)n1` here?
**A.** 58.1 nM

**Q.** How did the IC50 turn out when `Cc1nc(N)nc(-n2c(Nc3n[nH]c4cccc(F)c34)nc3ccccc32)n1` was run?
**A.** 2740 nM

**Q.** How did the IC50 turn out when `Cc1nc(NCCN2CCNCC2)nc(-n2c(Nc3cc[nH]n3)nc3ccccc32)n1` was run?
**A.** 31800 nM

**Q.** Which IC50 does the source give for `Cc1nc(N)nc(-n2c(Nc3ccc(NC(=O)C4CCCC4)cc3)nc3ccccc32)n1` here?
**A.** 1370 nM

**Q.** With `Cc1nc(N)nc(-n2c(Nc3cccc4[nH]ncc34)nc3ccccc32)n1` as the compound, how does the IC50 read?
**A.** 14.6 nM

**Q.** For `CNc1nc(C)nc(-n2c(Nc3cc[nH]n3)nc3cc(C4=CCNCC4)ccc32)n1.CNc1nc(C)nc(-n2c(Nc3cc[nH]n3)nc3ccc(C4=CCNCC4)cc32)n1`, which IC50 is on record?
**A.** 4240 nM

**Q.** How did the IC50 turn out when `Cc1nc(NC2CC2)nc(-n2c(Nc3ccn[nH]3)nc3ccccc32)n1` was run?
**A.** 4850 nM

**Q.** How did the IC50 turn out when `CNc1nc(C)nc(-n2c(Nc3ccc(NC(C)=O)cc3)nc3ccccc32)n1` was run?
**A.** 53.1 nM

**Q.** For `COc1ccc(-c2ccc3c(c2)nc(Nc2ccn[nH]2)n3-c2nc(C)nc(N)n2)cc1CO.COc1ccc(-c2ccc3nc(Nc4ccn[nH]4)n(-c4nc(C)nc(N)n4)c3c2)cc1CO`, which IC50 is on record?
**A.** 94.3 nM

**Q.** How did the IC50 turn out when `Cc1nc(NCCO)nc(-n2c(Nc3cc[nH]n3)nc3ccccc32)n1` was run?
**A.** 7260 nM

**Q.** With `Cc1nc(NC2CCOCC2)nc(-n2c(Nc3cc[nH]n3)nc3ccccc32)n1` as the compound, how does the IC50 read?
**A.** 17200 nM

**Q.** With `COCCNc1nc(C)nc(-n2c(Nc3cc[nH]n3)nc3ccccc32)n1` as the compound, how does the IC50 read?
**A.** 4550 nM

**Q.** Which IC50 does the source give for `CCNC(=S)Nc1ccc(Nc2nc3ccccc3n2-c2nc(C)nc(N)n2)cc1` here?
**A.** 470 nM
